Reference: patent publication US7838706B2, “Preparation and the use of ethoxy combretastatins and their prodrugs” (priority 2006, dated 2010)
pIC50: −log10 of the molar value. Like-named read-outs stand apart in the source and are kept apart here.

How the values were obtained:
Format in all cases: cell-based
[1] = test system: Bel-7402 (human liver cancer cell); assay: In vitro anti-tumor activity evaluation (SRB/MTT, 72 hours); settings: read-out: IC50 Liver cancer Bel-7402
Experimental: (§1) The tumor cell cultured in vitro was treated with ethoxy combretastatin derivatives for 72 hours, and the MTT and SRB assays was used to evaluate its inhibition of tumor proliferation.
(§2) Cell Line: H460 (human lung cancer cell), SGC7901 (human stomach cancer cell), HT-29 (human colon cancer cell), Bel-7402 (human liver cancer cell).
(§3) Experimental Design: The cells were incubated with the compounds in various concentrations (100, 10, 1, 0.1, 0.01, 0.001 μM) for 72 hours. SRB assay was used to evaluate the inhibition effect of the compounds on cell proliferation. The inhibition rate was calculated, and IC50 was calculated by using Logit model as a function of the inhibition rate. And the anti-tumor activity of the compounds in vitro was compared.
(§4) The Inhibition Rate was Expressed Using the Following Equation: Inhibition rate (%)=[(average OD value of control group−average OD value of experimental group)/average OD value of control group]×100%.

[2] = test system: H460 (human lung cancer cell); assay: as above; settings: read-out: IC50 Non-small cell lung cancer H460
Experimental: as §1, §2, §3, §4

[3] = test system: HT-29 (human colon cancer cell); assay: as above; settings: read-out: IC50 Colon cancer HT29
Experimental: as §1, §2, §3, §4

[4] = test system: SGC7901 (human stomach cancer cell); assay: as above; settings: read-out: IC50 Stomach cancer SGC-7901
Experimental: as §1, §2, §3, §4

[5] = test system: human umbilical vein endothelial cells (HUVEC); assay: In vitro neovascular inhibition evaluation
Experimental: Anti-angiogenesis effects of ethoxy combretastatins were assessed in human umbilical vein endothelial cells (HUVEC) using the same method described in Example 10.

[6] = Homo sapiens, read-out: IC50 HUVEC

Row | Compound | pIC50 ([1]; Homo sapiens, Bel-7402, 72 h) | pIC50 ([2]; Homo sapiens, NCI-H460, 72 h) | pIC50 ([3]; Homo sapiens, HT-29, 72 h) | pIC50 ([4]; Homo sapiens, SGC-7901, 72 h) | pIC50 [5, 6] | pIC50 ([1]; Bel-7402 cells, 72 hours incubation) | pIC50 ([2]; H460 cells, 72 hours incubation) | pIC50 ([3]; HT29 cells, 72 hours incubation) | pIC50 ([4]; SGC-7901 cells, 72 hours incubation) | pIC50 ([5]; same method as Example 10, read-out: IC50 HUVEC)
1 | CCOc1ccc(/C=C\c2cc(OC)c(OC)c(OC)c2)cc1O [Ethoxy combretastatin, (Z)-1-(3,4,5-trimethoxy)phenyl-2-(3′-hydroxy-4′-ethoxy) Phenylethylene] | 6.21 | 7.96 | 7.33 | 8.10 | 5.66 | – | – | – | – | –
2 | CCOc1ccc(/C=C\c2cc(OC)c(OC)c(OC)c2)cc1N [3′-Amino ethoxy combretastatin, (Z)-1-(3,4,5-trimethoxy)phenyl-2-(3′-amino-4′-ethoxy) Phenylethylene] | 6.48 | 8.10 | 7.60 | 8.22 | 5.82 | – | – | – | – | –
3 | COc1ccc(/C=C\c2cc(OC)c(OC)c(OC)c2)cc1O [CA-4, (Z)-1-(3,4,5-trimethoxy)phenyl-2-(3′-hydroxy-4′-methoxy)phenylethylene] | – | – | – | – | – | 6.12 | 7.57 | 5.62 | 8.00 | 5.43
